From patent US20110275670A1, “New Compounds VII” (priority 2008, published 2011)

Experiments:
[1] = test system: JEG-3 cells; assay: JEG-3 protocol: [3H]-thymidine incorporation (leptin assay in non-recombinant system); type: cell-based; details: FIG. 4
Protocol: In JEG-3 cells (choriocarcinoma cell line) leptin is able to stimulate proliferation up to 3 fold (Biol. Reprod. (2007) 76: 203-10). […] The radioactivity incorporated by the cells is an index of their proliferative activity and is measured in counts per minute (CPM) with a liquid scintillation beta counter.
This finding can be applied to test whether a compound is able to either reproduce the effect of leptin on cell proliferation (leptin receptor agonist mimetic) (i.e., a given compound will cause an increase in incorporated [^3H]-Thymidine by the cells) or to inhibit the effect of leptin (antagonistic effect) by preventing the leptin-mediated increase in [^3H]-thymidine incorporation.
This approach has the advantage of using a non-recombinant system and has reasonable reproducibility and robustness.

[2] = test system: JEG-3 cells; details: Biol. Reprod. (2007) 76: 203-10; cited from earlier work

EC50 ([1]; JEG-3 cells (choriocarcinoma cell line), read-out: EC50, concentration-dependent increase in [3H]-thymidine incorporation): 2.1 nM
Substance: Leptin: a hormone synthesized in fat cells that is believed to act in the hypothesis to reduce food intake and body weight
concentration of maximal effect on [3H]-thymidine incorporation ([1]; JEG-3 cells): 100 nM | stimulation of proliferation [2]: up to 3 fold
